Measurements published in paper PMC10418939, “Synthesis, ^123I-Radiolabeling Optimization, and Initial Preclinical Evaluation of Novel Urea-Based PSMA Inhibitors with a Tributylstannyl Prosthetic Group in Their Structures” (International Journal of Molecular Sciences, 2023).
Like-named read-outs stand apart in the source and are kept apart here.

Columns and labels:
[1] = NCr nude mice bearing LNCaP xenografts, cited from earlier work; for accumulation in the liver: 4 h after injection; for accumulation in the kidney: after 4 h
Text: The uptake of [^123I]PSMA-p-IB in normal organs, except in the salivary gland, gastrointestinal tract, and body, were low. […] This value was correlated with PSMA-p-IB that had been ^123I-labeled, which is non-residualizi ...

[2] = In vivo biodistribution in normal mice; set-up: activity in the whole gastrointestinal tract (with contents): unit not given here; conditions: female CD1 mice, i.v. tail vein, 80 pmol, 4 h p.i.
Method: The mice were sacrificed at 4 h post-injection (p.i.) by cervical dislocation. A side-by-side comparison of the biodistribution of [^123I]PSMA-p-IB and [^177Lu]Lu-PSMA-617 in normal mice is shown in Figure 11. Biodistribution of [^123I]PSMA-p-IB at 4 h p.i. in CD1 mice reflects a low level of accumulation in almost all normal organs, except in the salivary gland, gastrointestinal tract, and the rest of the body. There were significant differences between the uptake of [^123I]PSMA-p-IB and [^177Lu]Lu-PSMA-617 in several normal organs. Low accumulation of both ligands was detected in muscle and bone. However, it was determined that the uptake of [^177Lu]Lu-PSMA-617 in muscle (0.1 ± 0.1 %ID/g) was noticeably lower than that of [^123I]PSMA-p-IB (0.2 ± 0.0 %ID/g). […] The activity of [^123I]PSMA-p-IB in blood was 1.3 ± 0.5 %ID/g. […] The activity in the blood for [^123I]PSMA-p-IB experiment was associated with […] labeled with ^123I, which is non-residualizing and is thought to result in the rapid excretion of radiometabolites. Additionally, this ligand lipophilicity might lead it to bind to proteins in the blood. […] This value was clearly higher than the [^177Lu]Lu-PSMA-617 accumulation in the same organ of 0.1 ± 0.0 %ID/g. This [^123I]PSMA-p-IB accumulation could be due to radioiodine catabolites. The activity in the whole gastrointestinal tract (with contents) and small intestine for [^123I]PSMA-p-IB was 12.4 ± 0.8 and 1.1 ± 0.2 %ID/g, respectively. Meanwhile, the activity of [^177Lu]Lu-PSMA-617 in the whole gastrointestinal tract (with contents) and small intestine was 1.2 ± 0.8 and 0.2 ± 0.1 %ID/g, respectively.
Remarkable results were observed whereby the accumulation of [^123I]PSMA-p-IB (0.9 ± 0.1 %ID/g) in the liver was substantially lower than that of [^177Lu]Lu-PSMA-617 (2.3 ± 0.2 %ID/g).
The biodistribution of [^123I]PSMA-p-IB and [^177Lu]Lu-PSMA-617 in normal mice was evaluated in 8 female CD1 mice (2 groups) of 6 weeks of age with an average weight of 31.8 ± 3.6 g. The mice were housed and cared for under standard conditions prior to use. Four mice were each injected intravenously through the tail vein with 40 kBq (80 pmol) of [^123I]PSMA-p-IB in 100 μL PBS with 10% ethanol. The remaining 4 mice were intravenously (i.v.) injected with 130 kBq (80 pmol) of [^177Lu]Lu-PSMA-617 in 100 μL PBS with 1% BSA per mouse. The mice were sacrificed 4 h after injection. Cervical dislocation was employed to sacrifice the anesthetized mice. The blood, tissues, and organs (salivary gland, lung, liver, spleen, small intestine, kidney, muscle, and bone) were excised, collected, and weighed. The ^123I and ^177Lu activities were simultaneously measured using a gamma-counter. The activity uptake was expressed as the percentage of injected activity per gram of organ (%ID/g).
Figure 11 Biodistribution of [^123I]PSMA-p-IB and […] in CD1 mice 4 h post-injection (p.i.). Data for the gastrointestinal tract (including the contents) and the body are presented as the %ID per whole sample. ns indicates p > 0.05, * indicates p ≤ 0.05, ** indicates p ≤ 0.01, *** indicates p ≤ 0.001 and **** indicates p ≤ 0.0001. The comparison study was performed by unpaired 2-tailed t-tests (95% confidence interval).

Molecule	accumulation in the liver [1] [%ID/g]	accumulation in the kidney [1] [%ID/g]	accumulation in bone ([2]; n = 4, gamma counter) [%ID/g]	accumulation in salivary glands ([2]; n = 4, gamma counter) [%ID/g]	accumulation in the liver ([2]; n = 4, gamma counter) [%ID/g]	activity in blood ([2]; n = 4, gamma counter) [%ID/g]	activity in small intestine ([2]; n = 4, gamma counter) [%ID/g]	uptake in muscle ([2]; n = 4, gamma counter) [%ID/g]	uptake in the kidney ([2]; n = 4, gamma counter) [%ID/g]	activity in the whole gastrointestinal tract (with contents) ([2]; n = 4, Figure 11 legend: %ID per whole sample)
O=C(O)CC[C@H](NC(=O)N[C@@H](CCCCNCc1ccc([123I])cc1)C(=O)O)C(=O)O [[^123I]MIP-1072]	2.17 ± 0.67	35.7 ± 18.7	–	–	–	–	–	–	–	–
O=C(O)CC[C@H](NC(=O)N[C@@H](CCCCNC(=O)Nc1ccc([123I])cc1)C(=O)O)C(=O)O [[^123I]MIP-1095]	7.82 ± 1.01	77.5 ± 16.5	–	–	–	–	–	–	–	–
[^177Lu]Lu-PSMA-617	–	–	0.6 ± 0.1	0.1 ± 0.0	2.3 ± 0.2	0.1 ± 0.0	0.2 ± 0.1	0.1 ± 0.1	6.1 ± 3.7	1.2 ± 0.8
